In brackets after ≈: the same amount, converted by molar mass. Non-standard residues stand in square brackets, D forms with d. Residues, ends and D or L forms follow the SMILES beside them. Cha = N[C@@H](CC1CCCCC1)C(=O)O
Tests used:
E. faecalis (NCTC 12697) = assay type: cell-based, Enterococcus faecalis; conditions: NCTC 12697, pH 7.4
Experimental: (§3) Gram-positive bacteria Staphylococcus aureus (NCTC 10788) and Enterococcus faecalis (NCTC 12697) and Gram-negative bacteria Escherichia coli (NCTC 10418), Pseudomonas aeruginosa (ATCC 27853), and Klebsiella pneumoniae (ATCC 43816) were tested. […] All the bacterial strains were inoculated in Mueller Hinton broth (MHB), pH 7.4 (Oxiod, Basingstoke, UK) at 37 °C. Then, the log-phase bacteria were mixed with the peptide at the concentrations from 512 to 1 µM in two-fold dilution, in a 96 well-plate. The wells contained sterilized MHB and bacteria cultures were employed as a blank and growth control, respectively.

[1] = cited from earlier work
From the text: Dermaseptins are a class of cationic AMPs that were discovered from the skin of Phyllomedusa frogs, usually consisting of 28–34 amino acids. They can form an amphipathic α-helix in amphiphilic environments, which makes them bind easily to bacterial lipid bilayers. Dermaseptins contain a conserved Trp residue in position three and a unique internal motif, -AAA/GKAAL/G/NA-, and exert broad-spectrum antimicrobial activity against a range of ESKAPE pathogens. […] Compared with the other AMPs applied using the same model, such as Japonicin-2LF [53], DMPC-10B exerted relatively stronger efficacy. Japonicin-2LF prevented around 50% mortality at 50 mg/kg in treatment of MRSA infection, but DMPC-10B achieved similar efficacy at 20 mg/kg.

MRSA (NCTC 12493) = assay type: cell-based, methicillin-resistant S. aureus; conditions: NCTC 12493, pH 7.4
Experimental: as §3

E. coli (NCTC 10418) [2] = assay type: cell-based, Escherichia coli
Experimental: (§1) Furthermore, the antimicrobial activity in the presence of MgCl2, CaCl2, NaCl and 10% fetal bovine serum (FBS) was investigated. In detail, 2 and 5 mM of MgCl2 and CaCl2, and 150 and 375 mM NaCl, were applied, respectively. The supplements were added into the medium that was used for diluting the bacteria suspension. Then, the diluted bacteria culture was mixed with the peptide stock solution in the 96-well plate, as mentioned above. The assay was performed three times and each assay contained 5 replicates.

[3] = test system: K. pneumoniae (ATCC 43816); assay type: cell-based, Klebsiella pneumoniae; conditions: ATCC 43816, pH 7.4
Experimental: as §3

[4] = test system: K. pneumoniae (ATCC BAA 1705); assay type: cell-based, Klebsiella pneumoniae; conditions: ATCC BAA 1705, pH 7.4
Experimental: as §3

[5] = test system: K. pneumoniae (ATCC BAA 2342); assay type: cell-based, Klebsiella pneumoniae; conditions: ATCC BAA 2342, pH 7.4
Experimental: as §3

[6] = test system: P. aeruginosa (ATCC 27853); assay type: cell-based, Pseudomonas aeruginosa; conditions: ATCC 27853, pH 7.4
Experimental: as §3

E. coli (NCTC 10418) [7] = assay type: cell-based, Escherichia coli; conditions: NCTC 10418, pH 7.4
Experimental: as §3

S. aureus (NCTC 10788) [8] = assay type: cell-based, Staphylococcus aureus
Experimental: as §1

chymotrypsin = chymotrypsin (Bos taurus, UniProt P00766); assay: Enzyme stability assay, chymotrypsin; assay type: in vitro ADME; conditions: peptide in PBS, peptide:chymotrypsin 100:1 (m/m), time points 0-120 min, stopped with 10% TFA, RP-HPLC peak area, three replicates
Experimental: (§2) The peptides were dissolved in phosphate-buffered saline (PBS) and mixed with the respective enzyme (trypsin and chymotrypsin) with a ratio of 100:1 (m/m). Then, 135 µl of the reaction solution was transferred into a new vial. The hydrolysis reaction was immediately terminated by adding 15 µl of 10% TFA at the different time points (0, 5, 10, 20, 40, 60, 120 min). The mixture was then analyzed by reverse-phase HPLC and respective peak areas were calculated to obtain the residual amount of peptides at different times.

S. aureus (NCTC 10788) [9] = assay type: cell-based, Staphylococcus aureus; conditions: NCTC 10788, pH 7.4
Experimental: as §3

trypsin = molecular target: T1, trypsin (Bos taurus, UniProt P00760); assay: Enzyme stability assay, trypsin; assay type: in vitro ADME; conditions: peptide in PBS, peptide:trypsin 100:1 (m/m), time points 0-120 min, stopped with 10% TFA, RP-HPLC peak area, three replicates
T1 construct: gene PRSS1
T1 sequence (P00760 24-246): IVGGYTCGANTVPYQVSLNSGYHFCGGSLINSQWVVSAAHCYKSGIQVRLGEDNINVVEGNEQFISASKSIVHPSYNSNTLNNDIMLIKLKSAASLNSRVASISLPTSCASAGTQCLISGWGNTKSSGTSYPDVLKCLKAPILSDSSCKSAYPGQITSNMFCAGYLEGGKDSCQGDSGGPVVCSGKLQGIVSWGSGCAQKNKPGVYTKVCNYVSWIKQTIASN
Experimental: as §2

CC(C)C[C@H](NC(=O)[C@H](C)N)C(=O)N[C@@H](Cc1c[nH]c2ccccc12)C(=O)N[C@@H](CCCCN)C(=O)N[C@@H](CCCCN)C(=O)N[C@@H](CC(C)C)C(=O)N[C@@H](CC(C)C)C(=O)N[C@@H](CCCCN)C(=O)N[C@@H](CCCCN)C(=O)N[C@@H](CC1CCCCC1)C(N)=O [DMPC-10A] (H-ALWKKLLKK[Cha]-NH2)
MBC (E. faecalis (NCTC 12697)): 64 µM (≈ 81.9 µg/mL) | MIC (E. faecalis (NCTC 12697)): 64 µM (≈ 81.9 µg/mL) | hemolytic effect [1]: considerable hemolytic effect | MBC (MRSA (NCTC 12493)): 16 µM (≈ 20.5 µg/mL) | MIC (MRSA (NCTC 12493)): 8 µM (≈ 10.2 µg/mL) | MIC with CaCl2 5 mM (E. coli (NCTC 10418) [2]): 64 µM | MIC with FBS 10% (E. coli (NCTC 10418) [2]): 16 µM | MIC with MgCl2 5 mM (E. coli (NCTC 10418) [2]): 64 µM | MIC with NaCl 150 mM (E. coli (NCTC 10418) [2]): 16 µM | MIC with NaCl 375 mM (E. coli (NCTC 10418) [2]): 32 µM | MIC, no additive (E. coli (NCTC 10418) [2]): 8 µM (≈ 10.2 µg/mL) | MBC [3]: 64 µM (≈ 81.9 µg/mL) | MIC [3]: 4 µM (≈ 5.12 µg/mL) | MBC [4]: 32 µM (≈ 41 µg/mL) | MIC [4]: 32 µM (≈ 41 µg/mL) | MBC [5]: 16 µM (≈ 20.5 µg/mL) | MIC [5]: 16 µM (≈ 20.5 µg/mL) | MBC [6]: 4 µM (≈ 5.12 µg/mL) | MIC [6]: 4 µM (≈ 5.12 µg/mL) | MBC (E. coli (NCTC 10418) [7]): 8 µM (≈ 10.2 µg/mL) | MIC (E. coli (NCTC 10418) [7]): 8 µM (≈ 10.2 µg/mL) | MIC with CaCl2 5 mM (S. aureus (NCTC 10788) [8]): 64 µM | MIC with FBS 10% (S. aureus (NCTC 10788) [8]): 16 µM | MIC with MgCl2 5 mM (S. aureus (NCTC 10788) [8]): 64 µM | MIC with NaCl 150 mM (S. aureus (NCTC 10788) [8]): 32 µM | MIC with NaCl 375 mM (S. aureus (NCTC 10788) [8]): 64 µM | MIC, no additive (S. aureus (NCTC 10788) [8]): 4 µM (≈ 5.12 µg/mL) | time in which chymotrypsin cleaved the peptide (chymotrypsin): 40 min | MBC (S. aureus (NCTC 10788) [9]): 8 µM (≈ 10.2 µg/mL) | MIC (S. aureus (NCTC 10788) [9]): 4 µM (≈ 5.12 µg/mL) | time in which trypsin completely cleaved the peptide (trypsin): 10 min
